Data: ChEMBL document CHEMBL3991601, “The target landscape of clinical kinase drugs” (Science, 2017)
pKd: −log10 of the molar value. The source made the active and inactive calls.

Experiments:
[1] = target: T1, Ferrochelatase, mitochondrial (Homo sapiens, UniProt P22830)
T1 sequence (P22830 whole entry): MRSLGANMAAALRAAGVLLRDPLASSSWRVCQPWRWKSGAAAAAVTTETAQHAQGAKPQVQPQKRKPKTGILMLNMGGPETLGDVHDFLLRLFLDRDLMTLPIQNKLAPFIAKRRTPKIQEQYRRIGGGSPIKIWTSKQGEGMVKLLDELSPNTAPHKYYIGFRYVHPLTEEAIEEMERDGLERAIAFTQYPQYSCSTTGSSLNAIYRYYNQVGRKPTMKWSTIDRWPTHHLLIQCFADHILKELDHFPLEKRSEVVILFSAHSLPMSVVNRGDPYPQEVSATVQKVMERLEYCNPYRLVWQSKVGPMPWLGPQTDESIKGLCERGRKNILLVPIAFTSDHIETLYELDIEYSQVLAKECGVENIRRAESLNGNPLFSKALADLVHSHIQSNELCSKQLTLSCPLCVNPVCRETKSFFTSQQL

[2] = target: T2, Acyl-CoA dehydrogenase family member 11 (Homo sapiens, UniProt Q709F0)
T2 sequence (Q709F0 whole entry): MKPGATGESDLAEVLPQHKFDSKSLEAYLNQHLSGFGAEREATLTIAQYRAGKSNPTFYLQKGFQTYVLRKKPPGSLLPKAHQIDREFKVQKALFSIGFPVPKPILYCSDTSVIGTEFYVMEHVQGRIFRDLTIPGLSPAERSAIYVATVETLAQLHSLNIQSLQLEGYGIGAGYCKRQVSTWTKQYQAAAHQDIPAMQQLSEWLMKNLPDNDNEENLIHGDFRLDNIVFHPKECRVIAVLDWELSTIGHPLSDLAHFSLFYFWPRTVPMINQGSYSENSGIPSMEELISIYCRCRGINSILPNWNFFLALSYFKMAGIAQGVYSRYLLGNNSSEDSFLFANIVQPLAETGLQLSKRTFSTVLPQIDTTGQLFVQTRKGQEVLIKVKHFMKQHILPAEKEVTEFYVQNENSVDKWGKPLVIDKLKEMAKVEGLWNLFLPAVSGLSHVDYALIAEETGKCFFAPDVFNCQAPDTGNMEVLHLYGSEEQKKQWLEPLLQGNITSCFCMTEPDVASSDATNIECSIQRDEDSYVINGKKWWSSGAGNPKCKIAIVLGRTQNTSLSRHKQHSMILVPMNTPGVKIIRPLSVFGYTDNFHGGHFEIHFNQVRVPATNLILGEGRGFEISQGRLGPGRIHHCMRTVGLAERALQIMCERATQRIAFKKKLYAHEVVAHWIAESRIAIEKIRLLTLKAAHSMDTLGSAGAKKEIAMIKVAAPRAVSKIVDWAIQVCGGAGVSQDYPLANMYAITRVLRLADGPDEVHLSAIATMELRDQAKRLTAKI

Myosin-14 = Myosin-14 (Homo sapiens, UniProt Q7Z406)
Ephrin type-A receptor 5 = Ephrin type-A receptor 5 (Homo sapiens, UniProt P54756)
[3] = target: Bone morphogenetic protein receptor type-1B (Homo sapiens, UniProt O00238)
[4] = target: Tyrosine-protein kinase FRK (Homo sapiens, UniProt P42685)
[5] = target: T3, Cytochrome c1, heme protein, mitochondrial (Homo sapiens, UniProt P08574)
T3 sequence (P08574 whole entry): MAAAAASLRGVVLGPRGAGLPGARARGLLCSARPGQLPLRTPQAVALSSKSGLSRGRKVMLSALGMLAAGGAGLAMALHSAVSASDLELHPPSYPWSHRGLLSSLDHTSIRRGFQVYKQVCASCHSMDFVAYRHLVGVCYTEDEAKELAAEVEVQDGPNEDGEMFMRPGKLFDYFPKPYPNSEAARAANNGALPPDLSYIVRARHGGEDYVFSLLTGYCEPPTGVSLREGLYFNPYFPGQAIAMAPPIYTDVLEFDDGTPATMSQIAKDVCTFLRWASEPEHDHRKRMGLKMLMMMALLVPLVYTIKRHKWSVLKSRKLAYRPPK

[6] = target: MAP/microtubule affinity-regulating kinase 3 (Homo sapiens, UniProt P27448)
[7] = target: Fibroblast growth factor receptor 1 (Homo sapiens, UniProt P11362)
[8] = target: T4, Ras-related protein Rab-10 (Homo sapiens, UniProt P61026)
T4 sequence (P61026 whole entry): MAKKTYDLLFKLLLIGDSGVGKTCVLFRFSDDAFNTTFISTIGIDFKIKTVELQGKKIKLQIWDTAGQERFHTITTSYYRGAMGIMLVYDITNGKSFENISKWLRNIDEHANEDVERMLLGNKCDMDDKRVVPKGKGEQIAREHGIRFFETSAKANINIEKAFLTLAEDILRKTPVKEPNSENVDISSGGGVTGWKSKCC

Midasin = Midasin (Homo sapiens, UniProt Q9NU22)
[9] = target: T5, Peroxisomal acyl-coenzyme A oxidase 1 (Homo sapiens, UniProt Q15067)
T5 sequence (Q15067 whole entry): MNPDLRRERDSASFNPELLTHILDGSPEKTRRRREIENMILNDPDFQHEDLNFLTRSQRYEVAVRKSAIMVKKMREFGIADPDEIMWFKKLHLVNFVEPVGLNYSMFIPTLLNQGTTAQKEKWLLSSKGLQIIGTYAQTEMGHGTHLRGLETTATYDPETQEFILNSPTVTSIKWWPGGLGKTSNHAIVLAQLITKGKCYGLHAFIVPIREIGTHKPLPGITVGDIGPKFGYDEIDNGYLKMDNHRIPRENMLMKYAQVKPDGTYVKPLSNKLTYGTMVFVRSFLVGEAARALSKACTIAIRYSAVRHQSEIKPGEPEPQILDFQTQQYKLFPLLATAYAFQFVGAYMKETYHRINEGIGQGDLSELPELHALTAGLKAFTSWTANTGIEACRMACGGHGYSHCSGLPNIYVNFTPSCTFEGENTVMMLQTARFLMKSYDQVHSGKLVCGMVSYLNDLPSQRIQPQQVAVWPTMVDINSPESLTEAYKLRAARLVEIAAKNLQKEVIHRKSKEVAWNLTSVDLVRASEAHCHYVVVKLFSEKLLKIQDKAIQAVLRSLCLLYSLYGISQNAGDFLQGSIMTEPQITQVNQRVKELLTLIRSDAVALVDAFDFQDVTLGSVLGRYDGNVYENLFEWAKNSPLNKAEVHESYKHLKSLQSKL

LIM domain kinase 2 = LIM domain kinase 2 (Homo sapiens, UniProt P53671)
[10] = target: ATP-dependent RNA helicase DDX3X (Homo sapiens, UniProt O00571)
Further: in the data inactive means no Kd found up to 30 µM.

Sequence of Ephrin type-A receptor 5 (P54756 whole entry): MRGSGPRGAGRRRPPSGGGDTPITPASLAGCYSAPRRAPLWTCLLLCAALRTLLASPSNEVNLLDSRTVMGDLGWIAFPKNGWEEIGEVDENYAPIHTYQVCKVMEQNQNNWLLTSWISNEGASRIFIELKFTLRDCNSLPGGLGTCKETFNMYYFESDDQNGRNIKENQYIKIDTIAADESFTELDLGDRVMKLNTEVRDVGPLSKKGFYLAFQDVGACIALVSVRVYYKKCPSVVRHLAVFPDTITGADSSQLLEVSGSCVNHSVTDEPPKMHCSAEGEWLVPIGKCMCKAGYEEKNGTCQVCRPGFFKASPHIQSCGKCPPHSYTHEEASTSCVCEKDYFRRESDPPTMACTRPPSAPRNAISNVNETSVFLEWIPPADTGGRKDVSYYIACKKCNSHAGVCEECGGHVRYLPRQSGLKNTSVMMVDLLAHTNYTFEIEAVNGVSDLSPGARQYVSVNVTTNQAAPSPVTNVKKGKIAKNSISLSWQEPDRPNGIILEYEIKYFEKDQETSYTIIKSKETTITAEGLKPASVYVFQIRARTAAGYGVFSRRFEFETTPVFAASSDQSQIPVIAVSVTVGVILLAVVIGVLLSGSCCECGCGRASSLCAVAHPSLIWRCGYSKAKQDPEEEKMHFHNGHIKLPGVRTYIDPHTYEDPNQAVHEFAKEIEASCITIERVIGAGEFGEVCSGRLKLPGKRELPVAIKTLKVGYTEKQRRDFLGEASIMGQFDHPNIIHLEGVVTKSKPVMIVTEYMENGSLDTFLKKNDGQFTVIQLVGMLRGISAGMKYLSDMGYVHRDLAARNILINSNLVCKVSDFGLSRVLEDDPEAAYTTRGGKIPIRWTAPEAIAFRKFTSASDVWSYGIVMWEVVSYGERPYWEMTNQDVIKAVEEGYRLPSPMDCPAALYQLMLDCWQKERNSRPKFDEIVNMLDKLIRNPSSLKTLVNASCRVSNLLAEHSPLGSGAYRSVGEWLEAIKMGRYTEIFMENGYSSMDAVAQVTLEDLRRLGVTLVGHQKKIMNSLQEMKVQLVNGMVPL
Sequence of Fibroblast growth factor receptor 1 (P11362 whole entry): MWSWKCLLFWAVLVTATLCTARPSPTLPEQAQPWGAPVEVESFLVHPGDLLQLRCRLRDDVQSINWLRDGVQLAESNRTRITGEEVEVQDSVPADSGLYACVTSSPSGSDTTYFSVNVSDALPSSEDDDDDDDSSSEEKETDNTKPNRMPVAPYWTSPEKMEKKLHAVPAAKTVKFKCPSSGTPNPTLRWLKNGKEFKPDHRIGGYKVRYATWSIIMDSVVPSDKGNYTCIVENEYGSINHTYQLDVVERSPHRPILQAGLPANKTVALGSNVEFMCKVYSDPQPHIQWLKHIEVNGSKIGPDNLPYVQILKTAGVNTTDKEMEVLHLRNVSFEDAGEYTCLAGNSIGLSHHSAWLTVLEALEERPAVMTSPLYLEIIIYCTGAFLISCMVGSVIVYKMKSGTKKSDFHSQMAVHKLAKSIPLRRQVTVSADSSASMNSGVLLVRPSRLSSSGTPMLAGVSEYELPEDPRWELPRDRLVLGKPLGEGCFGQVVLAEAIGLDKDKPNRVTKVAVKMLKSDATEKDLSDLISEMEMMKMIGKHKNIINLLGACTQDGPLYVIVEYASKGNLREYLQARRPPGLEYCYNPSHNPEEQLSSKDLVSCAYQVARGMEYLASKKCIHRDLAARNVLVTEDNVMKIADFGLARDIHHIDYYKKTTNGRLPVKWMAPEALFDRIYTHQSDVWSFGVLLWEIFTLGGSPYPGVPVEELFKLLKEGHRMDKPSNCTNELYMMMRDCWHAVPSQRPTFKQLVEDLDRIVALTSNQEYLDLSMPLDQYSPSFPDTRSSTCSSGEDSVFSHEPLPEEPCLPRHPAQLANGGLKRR
Sequence of Bone morphogenetic protein receptor type-1B (O00238 whole entry): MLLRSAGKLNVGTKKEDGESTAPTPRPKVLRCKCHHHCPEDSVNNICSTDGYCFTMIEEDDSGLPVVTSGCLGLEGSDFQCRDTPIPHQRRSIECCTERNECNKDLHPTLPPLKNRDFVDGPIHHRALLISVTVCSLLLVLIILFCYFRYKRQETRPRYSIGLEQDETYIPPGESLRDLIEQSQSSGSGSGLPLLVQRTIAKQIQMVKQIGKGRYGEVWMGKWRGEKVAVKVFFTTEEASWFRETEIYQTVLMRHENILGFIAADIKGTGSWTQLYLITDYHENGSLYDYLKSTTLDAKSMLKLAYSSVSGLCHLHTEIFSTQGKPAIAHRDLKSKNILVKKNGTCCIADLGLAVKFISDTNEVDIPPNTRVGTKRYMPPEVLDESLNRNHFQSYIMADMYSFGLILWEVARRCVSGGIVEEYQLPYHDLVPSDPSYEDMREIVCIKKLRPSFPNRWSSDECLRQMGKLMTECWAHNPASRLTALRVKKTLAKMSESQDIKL
Sequence of Tyrosine-protein kinase FRK (P42685 whole entry): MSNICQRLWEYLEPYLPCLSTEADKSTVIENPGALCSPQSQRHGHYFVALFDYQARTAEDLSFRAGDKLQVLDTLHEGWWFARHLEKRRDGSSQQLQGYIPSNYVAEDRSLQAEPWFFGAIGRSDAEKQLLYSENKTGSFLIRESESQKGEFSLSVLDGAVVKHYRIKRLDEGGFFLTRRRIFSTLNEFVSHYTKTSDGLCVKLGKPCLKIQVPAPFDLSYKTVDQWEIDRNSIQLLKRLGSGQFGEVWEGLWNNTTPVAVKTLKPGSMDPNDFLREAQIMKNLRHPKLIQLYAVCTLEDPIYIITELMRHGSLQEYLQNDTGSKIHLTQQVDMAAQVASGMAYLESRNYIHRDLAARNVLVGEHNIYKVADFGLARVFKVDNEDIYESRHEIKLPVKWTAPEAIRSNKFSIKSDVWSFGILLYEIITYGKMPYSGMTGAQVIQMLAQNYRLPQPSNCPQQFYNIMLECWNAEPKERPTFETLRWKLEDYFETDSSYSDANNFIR
Sequence of ATP-dependent RNA helicase DDX3X (O00571 whole entry): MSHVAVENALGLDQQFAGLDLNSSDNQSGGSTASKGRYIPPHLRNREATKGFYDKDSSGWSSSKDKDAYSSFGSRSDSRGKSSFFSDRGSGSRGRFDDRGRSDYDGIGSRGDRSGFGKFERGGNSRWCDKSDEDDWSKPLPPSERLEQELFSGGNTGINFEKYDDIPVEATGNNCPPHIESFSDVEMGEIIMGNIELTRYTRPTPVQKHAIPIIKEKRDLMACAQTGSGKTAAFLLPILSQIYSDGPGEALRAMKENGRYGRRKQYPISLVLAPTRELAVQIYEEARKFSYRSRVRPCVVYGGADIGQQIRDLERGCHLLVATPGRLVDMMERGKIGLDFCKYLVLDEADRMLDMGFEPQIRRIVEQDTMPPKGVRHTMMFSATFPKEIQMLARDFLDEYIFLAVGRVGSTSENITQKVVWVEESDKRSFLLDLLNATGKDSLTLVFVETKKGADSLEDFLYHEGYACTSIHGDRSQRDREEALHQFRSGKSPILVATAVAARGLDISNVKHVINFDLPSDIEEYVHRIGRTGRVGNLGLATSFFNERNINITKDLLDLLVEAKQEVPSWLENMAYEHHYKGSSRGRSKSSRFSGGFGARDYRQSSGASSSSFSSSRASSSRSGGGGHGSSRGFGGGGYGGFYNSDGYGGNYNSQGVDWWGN
Sequence of MAP/microtubule affinity-regulating kinase 3 (P27448 whole entry): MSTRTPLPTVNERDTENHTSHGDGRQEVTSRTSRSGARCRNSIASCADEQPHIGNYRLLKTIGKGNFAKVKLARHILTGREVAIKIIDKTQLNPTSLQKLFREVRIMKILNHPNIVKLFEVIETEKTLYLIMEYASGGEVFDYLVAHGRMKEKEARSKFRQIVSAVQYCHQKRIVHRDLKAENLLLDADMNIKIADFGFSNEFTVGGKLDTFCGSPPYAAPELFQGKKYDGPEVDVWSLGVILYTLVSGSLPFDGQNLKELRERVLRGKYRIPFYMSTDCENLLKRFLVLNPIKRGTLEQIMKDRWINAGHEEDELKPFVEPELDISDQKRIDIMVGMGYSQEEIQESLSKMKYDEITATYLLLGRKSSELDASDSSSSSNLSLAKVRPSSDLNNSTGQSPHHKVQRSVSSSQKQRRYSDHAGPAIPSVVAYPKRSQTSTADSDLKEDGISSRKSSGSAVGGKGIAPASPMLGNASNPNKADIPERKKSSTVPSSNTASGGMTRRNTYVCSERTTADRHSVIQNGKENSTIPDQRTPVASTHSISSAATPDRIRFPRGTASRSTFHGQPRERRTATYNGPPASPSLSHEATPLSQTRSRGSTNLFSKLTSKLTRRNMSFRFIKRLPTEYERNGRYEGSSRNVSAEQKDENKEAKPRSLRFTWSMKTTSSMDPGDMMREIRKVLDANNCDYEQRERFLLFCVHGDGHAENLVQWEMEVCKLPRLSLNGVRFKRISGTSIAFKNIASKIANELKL
Sequence of LIM domain kinase 2 (P53671 whole entry, the tested form may be a part): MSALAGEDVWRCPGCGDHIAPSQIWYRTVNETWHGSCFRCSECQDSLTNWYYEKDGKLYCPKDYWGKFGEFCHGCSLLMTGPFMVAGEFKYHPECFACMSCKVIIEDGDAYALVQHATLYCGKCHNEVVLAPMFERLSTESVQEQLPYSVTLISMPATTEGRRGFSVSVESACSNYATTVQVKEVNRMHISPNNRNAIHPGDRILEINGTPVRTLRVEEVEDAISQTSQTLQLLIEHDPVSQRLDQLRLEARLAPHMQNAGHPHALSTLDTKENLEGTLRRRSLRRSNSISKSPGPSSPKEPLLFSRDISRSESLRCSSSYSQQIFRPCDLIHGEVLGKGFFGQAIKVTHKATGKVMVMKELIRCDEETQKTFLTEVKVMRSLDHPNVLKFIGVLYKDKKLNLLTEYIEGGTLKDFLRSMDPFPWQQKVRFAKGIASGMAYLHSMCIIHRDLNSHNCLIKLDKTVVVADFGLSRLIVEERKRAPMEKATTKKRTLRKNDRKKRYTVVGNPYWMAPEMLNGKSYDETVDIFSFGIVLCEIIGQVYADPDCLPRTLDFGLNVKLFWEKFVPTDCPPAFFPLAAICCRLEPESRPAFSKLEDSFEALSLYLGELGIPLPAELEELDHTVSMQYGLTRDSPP

SMILES | Kd [1] | Kd [2] | Kd (Myosin-14) | Kd (Ephrin type-A receptor 5) | Kd [3] | Kd [4] | Kd [5] | Kd [6] | Kd [7] | Kd [8] | Kd (Midasin) | Kd [9] | Kd (LIM domain kinase 2) | Kd [10] | pKd [1] | pKd [3]
N#CC1(c2ccc(NC(=O)c3cccnc3NCc3ccncc3)cc2)CCCC1 [RIVOCERANIB] | > 30 µM (inactive) | > 30 µM (inactive) | > 30 µM (inactive) | > 30 µM (inactive) | > 30 µM (inactive) | > 30 µM (inactive) | > 30 µM (inactive) | > 30 µM (inactive) | > 30 µM (inactive) | > 30 µM (inactive) | > 30 µM (inactive) | > 30 µM (inactive) | > 30 µM (inactive) | > 30 µM (inactive) |  | 
CN1CCN(CCOc2cc(OC3CCOCC3)c3c(Nc4c(Cl)ccc5c4OCO5)ncnc3c2)CC1 [SARACATINIB] | > 30 µM (inactive) | > 30 µM (inactive) | > 30 µM (inactive) | 2.38 µM (active) |  | 2.33 µM (active) | > 30 µM (inactive) | > 30 µM (inactive) | > 30 µM (inactive) | > 30 µM (inactive) | > 30 µM (inactive) | > 30 µM (inactive) | > 30 µM (inactive) | > 30 µM (inactive) |  | 7.54
CO[C@H]1C[C@@H]2CC[C@@H](C)[C@@](O)(O2)C(=O)C(=O)N2CCCC[C@H]2C(=O)O[C@H]([C@H](C)C[C@@H]2CC[C@@H](O)[C@H](OC)C2)CC(=O)[C@H](C)/C=C(\C)[C@@H](O)[C@@H](OC)C(=O)[C@H](C)C[C@H](C)/C=C/C=C/C=C/1C [SIROLIMUS] | > 30 µM (inactive) | > 30 µM (inactive) | > 30 µM (inactive) | > 30 µM (inactive) | > 30 µM (inactive) | > 30 µM (inactive) | > 30 µM (inactive) | > 30 µM (inactive) | > 30 µM (inactive) | > 30 µM (inactive) | > 30 µM (inactive) | > 30 µM (inactive) | > 30 µM (inactive) | > 30 µM (inactive) |  | 
CO[C@H]1C[C@@H]2CC[C@@H](C)[C@@](O)(O2)C(=O)C(=O)N2CCCC[C@H]2C(=O)O[C@H]([C@H](C)C[C@@H]2CC[C@@H](OC(=O)C(C)(CO)CO)[C@H](OC)C2)CC(=O)[C@H](C)/C=C(\C)[C@@H](O)[C@@H](OC)C(=O)[C@H](C)C[C@H](C)/C=C/C=C/C=C/1C [TEMSIROLIMUS] | > 30 µM (inactive) | > 30 µM (inactive) | > 30 µM (inactive) | > 30 µM (inactive) | > 30 µM (inactive) | > 30 µM (inactive) | > 30 µM (inactive) | > 30 µM (inactive) | > 30 µM (inactive) | > 30 µM (inactive) | > 30 µM (inactive) | > 30 µM (inactive) | > 30 µM (inactive) | > 30 µM (inactive) |  | 
COc1cc2c(Nc3ccc(Cl)c(Cl)c3F)ncnc2cc1OC[C@@H]1C[C@@H]2CN(C)C[C@@H]2C1 [TESEVATINIB] | > 30 µM (inactive) | > 30 µM (inactive) | > 30 µM (inactive) | > 30 µM (inactive) | > 30 µM (inactive) | > 30 µM (inactive) | > 30 µM (inactive) | > 30 µM (inactive) | > 30 µM (inactive) | > 30 µM (inactive) | > 30 µM (inactive) | > 30 µM (inactive) | > 30 µM (inactive) | > 30 µM (inactive) |  | 
C[C@@H](N)c1ccc(C(=O)Nc2ccnc3[nH]ccc23)cc1 [Y-39983] | > 30 µM (inactive) | > 30 µM (inactive) | > 30 µM (inactive) | > 30 µM (inactive) | > 30 µM (inactive) | > 30 µM (inactive) | > 30 µM (inactive) | 38.5 µM (active) | > 30 µM (inactive) | > 30 µM (inactive) | > 30 µM (inactive) | > 30 µM (inactive) | > 30 µM (inactive) | > 30 µM (inactive) |  | 

Continued, in another order:

Kd [1] | Kd [2] | Kd (Myosin-14) | Kd (Ephrin type-A receptor 5) | Kd [3] | Kd [4] | Kd [5] | Kd [6] | Kd [7] | Kd [8] | Kd (Midasin) | Kd [9] | Kd (LIM domain kinase 2) | Kd [10] | pKd [1] | SMILES | pKd [3]
> 30 µM (inactive) | > 30 µM (inactive) | > 30 µM (inactive) | > 30 µM (inactive) | > 30 µM (inactive) | > 30 µM (inactive) | > 30 µM (inactive) | > 30 µM (inactive) | > 30 µM (inactive) | > 30 µM (inactive) | > 30 µM (inactive) | > 30 µM (inactive) | > 30 µM (inactive) | > 30 µM (inactive) |  | O=c1[nH]ccc2cc(OC3CCNCC3)ccc12 [SAR-407899 FREE BASE] | 
> 30 µM (inactive) | > 30 µM (inactive) | > 30 µM (inactive) | > 30 µM (inactive) | > 30 µM (inactive) | > 30 µM (inactive) | > 30 µM (inactive) | 1.93 µM (active) | > 30 µM (inactive) | > 30 µM (inactive) | > 30 µM (inactive) | > 30 µM (inactive) | > 30 µM (inactive) | > 30 µM (inactive) |  | Cn1cc(-c2cnn3c(N)c(Br)c([C@@H]4CCCNC4)nc23)cn1 [SCH-900776] | 
> 30 µM (inactive) | > 30 µM (inactive) | > 30 µM (inactive) | > 30 µM (inactive) | > 30 µM (inactive) | > 30 µM (inactive) | > 30 µM (inactive) | > 30 µM (inactive) | > 30 µM (inactive) | > 30 µM (inactive) | > 30 µM (inactive) | > 30 µM (inactive) | > 30 µM (inactive) | > 30 µM (inactive) |  | O=C(Cc1ccc(-c2ccc(OCCN3CCOCC3)cc2)cn1)NCc1ccccc1 [TIRBANIBULIN] | 
 | > 30 µM (inactive) | > 30 µM (inactive) | > 30 µM (inactive) | > 30 µM (inactive) | > 30 µM (inactive) | > 30 µM (inactive) | > 30 µM (inactive) | > 30 µM (inactive) | > 30 µM (inactive) | > 30 µM (inactive) | > 30 µM (inactive) | > 30 µM (inactive) | > 30 µM (inactive) | 6.61 | CN1C/C=C/CCOc2cccc(c2)-c2ccnc(n2)Nc2cccc(c2)C1 [ZOTIRACICLIB] | 
